Counter-ions that a name gives are not always drawn. Like-named read-outs stand apart in the source and are kept apart here.
Experiments:
[1] = molecular target: T1, human MAO A (Homo sapiens, UniProt P21397); test: Anti-MAO assay; assay type: biochemical; settings: for % inhibition at 100 μM MAO A: NI = no inhibition; for inhibition at 100 µM: read-out: % inhibition at 100 μM MAO A
T1 sequence (P21397 1-527): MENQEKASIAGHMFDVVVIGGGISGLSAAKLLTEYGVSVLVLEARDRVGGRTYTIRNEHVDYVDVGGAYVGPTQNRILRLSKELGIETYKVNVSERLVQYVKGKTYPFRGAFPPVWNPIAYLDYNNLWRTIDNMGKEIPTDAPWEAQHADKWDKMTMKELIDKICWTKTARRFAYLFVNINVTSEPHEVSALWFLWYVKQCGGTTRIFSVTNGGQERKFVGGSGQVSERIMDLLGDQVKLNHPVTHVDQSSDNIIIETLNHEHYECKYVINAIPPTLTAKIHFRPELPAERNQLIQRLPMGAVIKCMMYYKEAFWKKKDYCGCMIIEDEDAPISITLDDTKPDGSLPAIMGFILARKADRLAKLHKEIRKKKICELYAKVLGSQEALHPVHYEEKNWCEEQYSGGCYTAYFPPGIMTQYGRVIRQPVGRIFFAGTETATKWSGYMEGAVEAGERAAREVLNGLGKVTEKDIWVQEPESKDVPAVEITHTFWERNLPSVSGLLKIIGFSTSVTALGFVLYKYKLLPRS

[2] = test system: MV4–11 AML cells; settings: read-out: IC50 MV4–11 (antiproliferative activity), 48 h
[3] = test system: NB4 APL cells; settings: read-out: IC50 NB4 (antiproliferative activity), 48 h
[4] = molecular target: T2, human MAO B (Homo sapiens, UniProt P27338); test: Anti-MAO assay; assay type: biochemical; settings: read-out: % inhibition at 100 μM MAO B
T2 sequence (P27338 1-520): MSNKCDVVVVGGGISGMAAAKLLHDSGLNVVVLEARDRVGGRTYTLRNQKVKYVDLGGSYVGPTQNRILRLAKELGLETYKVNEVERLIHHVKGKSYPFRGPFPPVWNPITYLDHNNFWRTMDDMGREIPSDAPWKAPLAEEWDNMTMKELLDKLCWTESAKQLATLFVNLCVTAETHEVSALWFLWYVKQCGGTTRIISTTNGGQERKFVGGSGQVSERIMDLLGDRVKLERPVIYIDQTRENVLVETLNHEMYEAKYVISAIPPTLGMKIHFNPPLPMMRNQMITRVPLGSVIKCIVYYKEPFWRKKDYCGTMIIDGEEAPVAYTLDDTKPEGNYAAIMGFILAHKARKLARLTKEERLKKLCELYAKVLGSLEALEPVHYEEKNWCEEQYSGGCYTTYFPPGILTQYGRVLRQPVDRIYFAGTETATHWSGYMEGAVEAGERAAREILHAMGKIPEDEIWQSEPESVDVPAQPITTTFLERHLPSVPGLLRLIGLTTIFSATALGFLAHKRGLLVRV

[5] = test system: MV4–11 AML cells; test: cells; settings: Homo sapiens, MV4-11, 48 h, read-out: IC50 MV4–11 (antiproliferative activity)
[6] = test system: NB4 APL cells; test: cells; settings: Homo sapiens, 48 h, read-out: IC50 NB4 (antiproliferative activity)
[7] = molecular target: T2, human MAO B; settings: added for comparison, ref [13b], [19]; cited from earlier work
[8] = molecular target: human recombinant LSD1/CoREST enzymatic complex (Homo sapiens, UniProt O60341); test: LSD1 enzyme inhibition assay; assay type: biochemical
[9] = Microsomal stability in liver microsomes; assay type: in vitro ADME; settings: mouse, pH 7.4
[10] = Microsomal stability in liver microsomes; assay type: in vitro ADME; settings: human, pH 7.4
[11] = read-out: LSD1, IC50, LSD1/CoREST, 15 min preincubation, NI = no inhibition

Compound	IC50 [5] [µM]	IC50 [6] [µM]	IC50 [8] [nM]	IC50 [8, 11] [nM]	other results
N[C@@H]1C[C@H]1c1ccccc1 (racemic) [TCP, tranylcypromine, reference compound]					% inhibition at 100 μM MAO A [1]: 79%; IC50 [2]: > 100 µM; IC50 [3]: > 100 µM
NC1CC1c1ccc(NC(=O)OCc2ccccc2)cc1 (centres unmarked) [1b, benzyl [4-(2-aminocyclopropyl)phenyl]carbamate]	22.4 ± 3.8	25 ± 3.2			inhibition at 100 µM [1]: 96%; inhibition at 100 µM [4]: 37%
NC1CC1c1ccc(NC(=O)C(Cc2ccccc2)NC(=O)OCc2ccccc2)cc1 (centres unmarked) [2a]					% inhibition at 100 μM MAO B [7]: 1%
Cl.NC1CC1c1cccc(NC(=O)C(Cc2ccccc2)NC(=O)OCc2ccccc2)c1 (centres unmarked) [2b, Benzyl (1-((3-(2-aminocyclopropyl)phenyl)amino)-1-oxo-3-phenylpropan-2-yl)carbamate hydrochloride]	24.2 ± 3.1	42.7 ± 5.8	18100 ± 2900		fold decrease of anti-LSD1 potency relative to 2a [8]: > 120 fold
NC1CC1c1ccc(NC(=O)c2ccc(NC(=O)OCc3ccccc3)cc2)cc1 (centres unmarked) [3a, Benzyl (4-((4-(2-aminocyclopropyl)phenyl)carbamoyl)phenyl)carbamate hydrochloride]	0.4 ± 0.01	0.6 ± 0.02	90 ± 12		inhibition at 100 µM [1]: 37%; inhibition at 100 µM [4]: 8%; microsomal CLint at 1 μM [9]: 7.1 ± 2.2 µL/min/mg; microsomal CLint at 1 μM [10]: 6.7 ± 1.1 µL/min/mg
CN1CCN(c2cc(C(=O)Nc3ccc(C4CC4N)cc3)ccc2NC(=O)OCc2ccccc2)CC1 (centres unmarked) [3c, Benzyl 4-(4-(2-aminocyclopropyl)phenylcarbamoyl)-2-(4-methylpiperazin-1-yl)phenylcarbamate hydrochloride]	2.5 ± 0.1	0.9 ± 0.06	89 ± 10		inhibition at 100 µM [1]: 69%; inhibition at 100 µM [4]: 55%
NC1CC1c1ccc(NC(=O)c2ccc(Oc3ccccc3)c(NC(=O)OCc3ccccc3)c2)cc1 (centres unmarked) [3h, Benzyl (5-((4-(2-aminocyclopropyl)phenyl)carbamoyl)-2-phenoxyphenyl)carbamate hydrochloride]	3.3 ± 0.3	5.4 ± 0.6	143 ± 28		
NC1CC1c1ccc(NC(=O)c2ccc(Sc3ccccc3)c(NC(=O)OCc3ccccc3)c2)cc1 (centres unmarked) [3i, Benzyl (5-((4-(2-aminocyclopropyl)phenyl)carbamoyl)-2-(phenylthio)phenyl)carbamate hydrochloride]	21.4 ± 3.3	23.2 ± 3.8	73 ± 11		
NC1CC1c1ccc(NC(=O)c2ccccc2NC(=O)OCc2ccccc2)cc1 (centres unmarked) [3j, Benzyl (2-((4-(2-aminocyclopropyl)phenyl)carbamoyl)phenyl)carbamate hydrochloride]	8.2 ± 1.2	8.1 ± 0.9	146 ± 22		inhibition at 100 µM [1]: 72%; inhibition at 100 µM [4]: 17%
Cl.NC1CC1c1ccc(NC(=O)c2ccc(Br)cc2NC(=O)OCc2ccccc2)cc1 (centres unmarked) [3k, Benzyl (2-((4-(2-aminocyclopropyl)phenyl)carbamoyl)-5-bromophenyl)carbamate hydrochloridrate]				159 ± 34	% inhibition at 100 μM MAO A [1]: 94%; IC50 [2]: 6.2 ± 0.7 µM; IC50 [3]: 9.3 ± 1 µM
NC1CC1c1ccc(NC(=O)c2ccc(-c3ccccc3)cc2NC(=O)OCc2ccccc2)cc1 (centres unmarked) [3l, Benzyl (4-((4-(2-aminocyclopropyl)phenyl)carbamoyl)-[1,1’-biphenyl]-3-yl)carbamate hydrochloride]	8.1 ± 1	7.6 ± 0.8	135 ± 29		
NC1CC1c1ccc(NC(=O)c2cc(NC(=O)c3ccccc3)ccc2OCC(=O)Nc2ccccc2)cc1 (centres unmarked) [3m, N-(4-(2-aminocyclopropyl)phenyl)-5-benzamido-2-(2-oxo-2-(phenylamino)ethoxy)benzamide hydrochloride]	5.6 ± 1.1	5.5 ± 1.4	3900 ± 200		
NC1CC1c1ccc(NC(=O)c2cc(NC(=O)c3ccccc3)ccc2OCC(=O)NCc2ccccc2)cc1 (centres unmarked) [3n, N-(4-(2-aminocyclopropyl)phenyl)-5-benzamido-2-(2-(benzylamino)-2-oxoethoxy)benzamide]	3.3 ± 0.6	3.8 ± 0.8	1700 ± 50		
CNC1CC1c1ccccc1 (centres unmarked) [4a, N-methyl-TCP]				10800 ± 1100	LSD1/CoREST potency relative to TCP (fold less effective) [8]: same potency of TCP
CN(C)C1CC1c1ccccc1 (centres unmarked) [4b, N,N-dimethyl-TCP]				56200 ± 7800	LSD1/CoREST potency relative to TCP (fold less effective) [8]: 5 fold
NC(=O)C1CC1c1ccccc1 (centres unmarked) [4c, 2-Phenylcyclopropane-1-carboxamide]				> 100000	
NNC(=O)C1CC1c1ccccc1 (centres unmarked) [4d, 2-phenylcyclopropane-1-carbohydrazide]				> 100000	
NC1(c2ccccc2)CC1 [4e, 1-Phenylcyclopropan-1-amine hydrochloride]				> 100000	
NC1(c2ccc(NC(=O)C(Cc3ccccc3)NC(=O)OCc3ccccc3)cc2)CC1 (centres unmarked) [4f, Benzyl (1-((4-(1-aminocyclopropyl)-phenyl)-amino)-1-oxo-3-phenylpropan-2-yl)-carbamate hydrochloride]				> 100000	
NC(=O)C1(c2ccccc2)CC1 [4g, 1-Phenylcyclopropane-1-carboxamide]				> 100000	
NCC1(c2ccccc2)CC1 [4h, (1-phenylcyclopropyl)methanamine]				> 100000	
NN1CC1c1ccccc1 (centres unmarked) [4i, 2-phenylaziridin-1-amine]				> 100000	

Source: PMC7125024 (ChemMedChem, 2020)
